Reference: patent US20100298141A1, “SUBSTITUTED PYRIDINE N-OXIDE HERBICIDES” (E. I. DU PONT DE NEMOURS AND COMPANY, priority 2007, published 2010)

Tests used:
[1] = tested on: wheat; test: Test A pre-/postemergence greenhouse test; assay type: in vivo, Triticum aestivum; settings: for Wheat plant response rating: 0 to 100 scale
Procedure, shortened: (§1)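 Sowing in loam/sand; same-day pre (directed soil spray) and post (foliar, 1–2 leaf, 2–10 cm) treatment with surfactant-containing non-phytotoxic solvent formulation; ~10 days in greenhouse; eye-scored injury against untreated plants.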

[2] = tested on: johnsongrass; test: Test C pre-/postemergence test; assay type: in vivo, Sorghum halepense
Procedure, shortened: (§2)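 Compounds in a non-phytotoxic solvent with surfactant applied preemergence to seeded pots and, at the same time, postemergence to plants 2–18 cm tall (1- to 4-leaf stage). Paddy tests: pots flooded to 3 cm, compound applied into the water, depth held throughout.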

[3] = tested on: velvetleaf; test: Test C pre-/postemergence test; assay type: in vivo, Abutilon theophrasti
Procedure, shortened: as §2

[4] = tested on: eastern black nightshade; test: Test C pre-/postemergence test; assay type: in vivo, Solanum ptycanthum
Procedure, shortened: as §2

[5] = tested on: duck salad; test: Test C flooded paddy test; assay type: in vivo, Heteranthera limosa; settings: Flood
Procedure, shortened: (§3)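 Pots were flooded to 3 cm above the soil surface at treatment, compound applied directly to the paddy water, and that depth held throughout. Plants were kept in a greenhouse for 13 to 15 days, then visually rated against untreated controls.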

[6] = tested on: giant foxtail; test: Test C pre-/postemergence test; assay type: in vivo, Setaria faberii
Procedure, shortened: as §2

[7] = tested on: catchweed bedstraw; test: Test C pre-/postemergence test; assay type: in vivo, Galium aparine
Procedure, shortened: as §2

[8] = tested on: morningglory; test: Test C pre-/postemergence test; assay type: in vivo, Ipomoea coccinea
Procedure, shortened: as §2

[9] = tested on: wheat; test: Test C pre-/postemergence test; assay type: in vivo, Triticum aestivum
Procedure, shortened: as §2

[10] = tested on: rice; test: Test C flooded paddy test; assay type: in vivo, Oryza sativa; settings: Flood
Procedure, shortened: as §3

[11] = tested on: corn; test: Test C pre-/postemergence test; assay type: in vivo, Zea mays
Procedure, shortened: as §2

[12] = tested on: redroot pigweed; test: Test A pre-/postemergence greenhouse test; assay type: in vivo, Amaranthus retroflexus; settings: for Plant response rating, Pigweed: 0 to 100 scale where 0 is no effect and 100 is complete control; for Pigweed plant response rating: 0 to 100 scale
Procedure, shortened: as §1

[13] = tested on: downy brome; test: Test C pre-/postemergence test; assay type: in vivo, Bromus tectorum
Procedure, shortened: as §2

[14] = tested on: wild oat; test: Test C pre-/postemergence test; assay type: in vivo, Avena fatua
Procedure, shortened: as §2

[15] = tested on: velvetleaf; test: Test A pre-/postemergence greenhouse test; assay type: in vivo, Abutilon theophrasti; settings: for Velvetleaf plant response rating: 0 to 100 scale
Procedure, shortened: as §1

[16] = tested on: yellow nutsedge; test: Test C pre-/postemergence test; assay type: in vivo, Cyperus esculentus
Procedure, shortened: as §2

[17] = tested on: woolly cupgrass; test: Test C pre-/postemergence test; assay type: in vivo, Eriochloa villosa
Procedure, shortened: as §2

[18] = Postemergence, 125 g ai/ha, 0 to 100 scale where 0 is no effect and 100 is complete control
[19] = Postemergence, 500 g ai/ha, 0 is no effect, 100 is complete control
[20] = Preemergence, 125 g ai/ha, 0 no effect, 100 complete control
[21] = Preemergence, 500 g ai/ha, 0 no effect, 100 complete control
[22] = 62 g ai/ha, Preemergence, scale 0 to 100
[23] = 125 g ai/ha, preemergence, scale 0 (no effect) to 100 (complete control)
[24] = Preemergence, 31 g ai/ha, scale 0 to 100 (0 no effect, 100 complete control)
[25] = preemergence, 250 g ai/ha, scale 0 (no effect) to 100 (complete control)
[26] = 62 g ai/ha, scale 0 to 100 (0 no effect, 100 complete control)
[27] = 250 g ai/ha, scale 0 to 100, 0 no effect, 100 complete control, 13 to 15 days

## Cn1nc(C(F)(F)C(F)(F)F)c(C[S+]([O-])c2ccc(Cl)c[n+]2[O-])c1OCC(F)(F)F (stereo not drawn) [Compound 92]
[1]; [18]
  Plant response rating, Wheat: 70
[1]; [19]
  Wheat plant response rating: 70
[1]; [20]
  Wheat plant response rating: 70
[1]; [21]
  Wheat plant response rating: 90
[2]; [22]
  Johnsongrass plant response rating: 98
[2]; [23]
  Johnsongrass plant response rating: 100
[2]; [24]
  Plant response rating, Johnsongrass: 80
[2]; [25]
  Johnsongrass plant response rating: 100
[3]; [22]
  Velvetleaf plant response rating: 50
[3]; [23]
  Velvetleaf plant response rating: 100
[3]; [24]
  Plant response rating, Velvetleaf: 50
[3]; [25]
  Velvetleaf plant response rating: 100
[4]; [22]
  Nightshade plant response rating: 80
[4]; [23]
  Nightshade plant response rating: 100
[4]; [24]
  Plant response rating, Nightshade: 60
[4]; [25]
  Nightshade plant response rating: 100
[5]; [26]
  Plant response rating, Ducksalad: 55
[5]; [27]
  Plant response rating, Ducksalad: 100
[6]; [22]
  Foxtail, Giant plant response rating: 100
[6]; [23]
  Foxtail, Giant plant response rating: 100
[6]; [24]
  Plant response rating, Foxtail, Giant: 98
[6]; [25]
  Foxtail, Giant plant response rating: 100
[7]; [22]
  Galium plant response rating: 80
[7]; [23]
  Galium plant response rating: 95
[7]; [25]
  Galium plant response rating: 100
[8]; [22]
  Morningglory plant response rating: 80
[8]; [23]
  Morningglory plant response rating: 85
[8]; [24]
  Plant response rating, Morningglory: 0
[8]; [25]
  Morningglory plant response rating: 100
[9]; [22]
  Wheat plant response rating: 65
[9]; [23]
  Wheat plant response rating: 90
[9]; [24]
  Plant response rating, Wheat: 35
[9]; [25]
  Wheat plant response rating: 95
[10]; [26]
  Plant response rating, Rice: 30
[10]; [27]
  Plant response rating, Rice: 50
[11]; [22]
  Corn plant response rating: 95
[11]; [23]
  Corn plant response rating: 98
[11]; [24]
  Plant response rating, Corn: 75
[11]; [25]
  Corn plant response rating: 98
[12]; Postemergence, 125 g ai/ha
  Plant response rating, Pigweed: 50
[12]; [19]
  Pigweed plant response rating: 100
[12]; [20]
  Pigweed plant response rating: 100
[12]; Preemergence, 500 g ai/ha
  Plant response rating, Pigweed: 100
[13]; [22]
  Bromegrass, Downy plant response rating: 70
[13]; [23]
  Bromegrass, Downy plant response rating: 85
[13]; [24]
  Plant response rating, Bromegrass, Downy: 50
[13]; [25]
  Bromegrass, Downy plant response rating: 100
[14]; [22]
  Oat, Wild plant response rating: 85
[14]; [23]
  Oat, Wild plant response rating: 90
[14]; [24]
  Plant response rating, Oat, Wild: 60
[14]; [25]
  Oat, Wild plant response rating: 100
[15]; [18]
  Plant response rating, Velvetleaf: 50
[15]; [19]
  Velvetleaf plant response rating: 90
[15]; [20]
  Velvetleaf plant response rating: 30
[15]; [21]
  Velvetleaf plant response rating: 100
[16]; [22]
  Nutsedge, Yellow plant response rating: 90
[16]; [23]
  Nutsedge, Yellow plant response rating: 90
[16]; [24]
  Plant response rating, Nutsedge, Yellow: 90
[16]; [25]
  Nutsedge, Yellow plant response rating: 100
[17]; [22]
  Cupgrass, Woolly plant response rating: 90
[17]; [23]
  Cupgrass, Woolly plant response rating: 98
[17]; [24]
  Plant response rating, Cupgrass, Woolly: 65
[17]; [25]
  Cupgrass, Woolly plant response rating: 100
